# Assay results as given in ChEMBL document CHEMBL1201862, “PubChem BioAssay data set” (2004).
# Activity calls are given as the source filed them.
# Tests used:
# [1] = NIH-3T3 fibroblast cytotoxicity, dose response, cytotoxicity control, cell-based, fluorescence, Alamar Blue, secondary assay (AID 2327); format: functional;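 also: NIH-3T3 mouse fibroblasts cultured with fluconazole at 8 µg/mL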
# [2] = C. albicans growth with fluconazole, confirmation, fluorescence, retest (AID 2467); format: functional, cell-based
# [3] = target: T1, Ubiquitin-conjugating enzyme E2 N (Homo sapiens, UniProt P61088); format: functional;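 also: Dose-response confirmation in a TR-FRET assay detecting UBC13-driven polyubiquitin chain formation, inhibition measured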
# T1 sequence (P61088 whole entry): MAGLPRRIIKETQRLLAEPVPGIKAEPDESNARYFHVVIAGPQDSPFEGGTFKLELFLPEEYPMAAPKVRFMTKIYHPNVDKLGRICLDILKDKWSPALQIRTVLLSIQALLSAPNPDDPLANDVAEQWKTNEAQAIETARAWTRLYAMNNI
# Cytochrome P450 1A2 = target: T2, Cytochrome P450 1A2 (Homo sapiens, UniProt P05177);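 also: PubChem cytochrome P450 panel assay, CYP1A2 panel member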
# T2 sequence (P05177 whole entry): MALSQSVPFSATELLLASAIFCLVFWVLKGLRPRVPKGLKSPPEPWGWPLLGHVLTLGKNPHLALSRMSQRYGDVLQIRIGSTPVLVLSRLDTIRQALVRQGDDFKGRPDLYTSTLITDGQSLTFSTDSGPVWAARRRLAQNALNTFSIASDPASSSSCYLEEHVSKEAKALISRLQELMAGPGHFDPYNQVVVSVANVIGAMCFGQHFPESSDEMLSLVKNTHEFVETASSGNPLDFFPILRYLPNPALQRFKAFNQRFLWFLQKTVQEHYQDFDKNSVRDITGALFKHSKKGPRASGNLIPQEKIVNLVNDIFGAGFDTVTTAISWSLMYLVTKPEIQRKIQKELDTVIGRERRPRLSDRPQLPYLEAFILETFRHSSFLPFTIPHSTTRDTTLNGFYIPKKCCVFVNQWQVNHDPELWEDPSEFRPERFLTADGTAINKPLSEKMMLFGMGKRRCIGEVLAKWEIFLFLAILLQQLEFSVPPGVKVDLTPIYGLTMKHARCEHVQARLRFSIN
# Cytochrome P450 2C9 = Cytochrome P450 2C9 (Homo sapiens, UniProt P11712)
# Sequence of Cytochrome P450 2C9 (P11712 whole entry): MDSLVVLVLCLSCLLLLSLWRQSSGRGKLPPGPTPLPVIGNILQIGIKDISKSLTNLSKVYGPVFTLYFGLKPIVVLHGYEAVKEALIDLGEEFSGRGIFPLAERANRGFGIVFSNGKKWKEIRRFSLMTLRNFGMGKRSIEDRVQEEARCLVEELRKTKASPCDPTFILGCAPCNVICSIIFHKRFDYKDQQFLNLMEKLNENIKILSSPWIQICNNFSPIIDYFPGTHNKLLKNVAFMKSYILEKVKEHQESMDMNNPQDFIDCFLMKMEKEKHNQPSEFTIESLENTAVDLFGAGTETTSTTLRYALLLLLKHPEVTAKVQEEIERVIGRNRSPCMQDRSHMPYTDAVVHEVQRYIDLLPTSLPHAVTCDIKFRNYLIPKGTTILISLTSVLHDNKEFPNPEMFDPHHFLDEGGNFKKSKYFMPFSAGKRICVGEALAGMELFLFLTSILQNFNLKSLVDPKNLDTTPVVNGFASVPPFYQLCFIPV
# [4] = growth suppression of PTEN-null colon cells, dose response, cell-based, HCT116 PTEN knockout (AID 1047); format: functional;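 also: HCT116 colon tumor cells with PTEN knocked out; cells exposed to compound for 60 hours before readout; potency for loss of cell viability measured by luminescence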
# [5] = growth suppression of beta-catenin-knockout colon cells, dose response, cell-based, HCT116, human colon tumor (AID 1045); format: functional;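 also: HCT116 colon tumor cells with beta catenin knocked out; cells exposed to compound for 60 hours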
# [6] = Shn3 3'UTR reporter inhibitors, dose response, cell-based, Clone20 osteoblasts, firefly luciferase, cherry-picked (AID 624132); format: functional;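 also: firefly luciferase luminescence from reporter carrying the Shn3 3'UTR in osteoblasts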
# [7] = HepG2 cell cytotoxicity, dose response, cytotoxicity control for Shn3 inhibitor project, CellTiter-Glo, cherry-picked (AID 624134); format: functional, cell-based
# [8] = control 3'UTR Renilla luciferase suppression, dose response, counter-screen for Shn3 inhibitor project, cell-based, Clone20-Shn3RL, cherry-picked (AID 624133); format: functional
# Leucine aminopeptidase = target: T3, Leucine aminopeptidase (Plasmodium falciparum 3D7, UniProt Q8IL11); test: P. falciparum M17LAP inhibitors, primary screen, biochemical, fluorogenic H-Leu-NHMec substrate, 1536-well (AID 1619); format: functional
# T3 sequence (Q8IL11 whole entry): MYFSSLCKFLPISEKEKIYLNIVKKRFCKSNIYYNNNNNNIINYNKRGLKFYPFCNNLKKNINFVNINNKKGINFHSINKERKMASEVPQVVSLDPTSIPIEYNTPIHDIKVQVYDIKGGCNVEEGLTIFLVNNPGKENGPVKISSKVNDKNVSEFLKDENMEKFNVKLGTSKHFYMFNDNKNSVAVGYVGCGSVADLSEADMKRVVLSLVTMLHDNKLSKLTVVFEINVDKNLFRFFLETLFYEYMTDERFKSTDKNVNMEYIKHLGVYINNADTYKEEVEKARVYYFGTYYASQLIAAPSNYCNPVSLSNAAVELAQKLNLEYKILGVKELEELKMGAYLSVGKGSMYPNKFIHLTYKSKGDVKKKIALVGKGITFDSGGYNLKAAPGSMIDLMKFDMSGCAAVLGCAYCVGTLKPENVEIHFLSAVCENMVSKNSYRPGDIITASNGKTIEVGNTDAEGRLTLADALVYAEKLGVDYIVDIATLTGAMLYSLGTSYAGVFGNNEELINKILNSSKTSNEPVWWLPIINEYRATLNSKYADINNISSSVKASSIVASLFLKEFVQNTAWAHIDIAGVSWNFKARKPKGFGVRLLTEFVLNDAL
# cells [9] = format: functional, cell-based
# cells [10] = format: functional, cell-based; remark: listed apart in the source
# Cytochrome P450 3A4 = Cytochrome P450 3A4 (Homo sapiens, UniProt P08684); settings: Potency;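 also: confirmatory qHTS run detecting inhibitors and substrates of CYP3A4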
# Sequence of Cytochrome P450 3A4 (P08684 whole entry): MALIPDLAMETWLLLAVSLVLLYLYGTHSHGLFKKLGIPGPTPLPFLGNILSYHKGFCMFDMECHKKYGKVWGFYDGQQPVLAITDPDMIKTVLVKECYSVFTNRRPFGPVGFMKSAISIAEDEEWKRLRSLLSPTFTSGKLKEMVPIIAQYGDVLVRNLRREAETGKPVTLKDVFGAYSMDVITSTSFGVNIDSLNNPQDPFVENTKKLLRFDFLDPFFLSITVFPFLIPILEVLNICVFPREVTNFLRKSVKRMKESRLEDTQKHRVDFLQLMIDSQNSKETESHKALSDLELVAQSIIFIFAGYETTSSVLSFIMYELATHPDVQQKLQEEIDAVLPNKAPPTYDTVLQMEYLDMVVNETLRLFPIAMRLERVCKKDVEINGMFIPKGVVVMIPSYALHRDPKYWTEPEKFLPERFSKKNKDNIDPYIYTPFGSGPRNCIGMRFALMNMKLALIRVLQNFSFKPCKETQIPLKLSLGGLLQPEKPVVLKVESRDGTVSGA
# [11] = target: T4, Calpain-2 catalytic subunit (Sus scrofa, UniProt P43367); test: pig calpain II inhibitor potency, dose response, biochemical, fluorogenic peptide substrate (AID 1420); format: functional
# T4 sequence (P43367 whole entry): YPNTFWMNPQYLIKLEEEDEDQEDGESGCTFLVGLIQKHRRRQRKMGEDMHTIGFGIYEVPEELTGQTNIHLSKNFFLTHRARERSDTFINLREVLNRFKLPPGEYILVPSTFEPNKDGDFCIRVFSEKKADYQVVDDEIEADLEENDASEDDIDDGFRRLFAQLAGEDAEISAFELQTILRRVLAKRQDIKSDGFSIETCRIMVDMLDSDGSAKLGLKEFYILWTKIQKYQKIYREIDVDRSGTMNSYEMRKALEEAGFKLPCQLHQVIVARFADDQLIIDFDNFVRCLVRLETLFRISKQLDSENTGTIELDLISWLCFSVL
# [12] = THP-1 cell cytotoxicity, dose response, cytotoxicity control for non-replicating M. tuberculosis project (AID 489025); format: functional
# cells [13] = format: functional
# Cytochrome P450 2C19 = Cytochrome P450 2C19 (Homo sapiens, UniProt P33261); test: Cytochrome panel assay with activity outcomes. Panel member name: p450-cyp2c19 Compounds with AC50 equal or less than 10 uM are considered active; format: functional; settings: read-out: AC50
# Sequence of Cytochrome P450 2C19 (P33261 whole entry): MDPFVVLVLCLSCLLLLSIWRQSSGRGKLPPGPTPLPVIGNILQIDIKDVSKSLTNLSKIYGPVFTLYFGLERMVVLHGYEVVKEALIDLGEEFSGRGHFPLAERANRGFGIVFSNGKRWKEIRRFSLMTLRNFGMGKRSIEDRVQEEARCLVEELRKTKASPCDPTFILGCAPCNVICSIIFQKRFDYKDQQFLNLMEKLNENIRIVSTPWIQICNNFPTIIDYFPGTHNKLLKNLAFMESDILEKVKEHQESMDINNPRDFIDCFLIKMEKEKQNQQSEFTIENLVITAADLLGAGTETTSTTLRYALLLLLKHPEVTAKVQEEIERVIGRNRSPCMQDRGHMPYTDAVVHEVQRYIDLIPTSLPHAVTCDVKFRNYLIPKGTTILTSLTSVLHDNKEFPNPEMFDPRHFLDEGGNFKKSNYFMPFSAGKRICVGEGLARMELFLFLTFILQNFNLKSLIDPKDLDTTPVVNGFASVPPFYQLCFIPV
# [14] = target: T5, Rac GTPase-activating protein 1 (Homo sapiens, UniProt Q9H0H5); test: MgcRacGAP GTPase-activating activity inhibitors, confirmation, biochemical, ADP Hunter fluorescence, primary and confirmatory (AID 624330); format: functional
# T5 sequence (Q9H0H5 whole entry): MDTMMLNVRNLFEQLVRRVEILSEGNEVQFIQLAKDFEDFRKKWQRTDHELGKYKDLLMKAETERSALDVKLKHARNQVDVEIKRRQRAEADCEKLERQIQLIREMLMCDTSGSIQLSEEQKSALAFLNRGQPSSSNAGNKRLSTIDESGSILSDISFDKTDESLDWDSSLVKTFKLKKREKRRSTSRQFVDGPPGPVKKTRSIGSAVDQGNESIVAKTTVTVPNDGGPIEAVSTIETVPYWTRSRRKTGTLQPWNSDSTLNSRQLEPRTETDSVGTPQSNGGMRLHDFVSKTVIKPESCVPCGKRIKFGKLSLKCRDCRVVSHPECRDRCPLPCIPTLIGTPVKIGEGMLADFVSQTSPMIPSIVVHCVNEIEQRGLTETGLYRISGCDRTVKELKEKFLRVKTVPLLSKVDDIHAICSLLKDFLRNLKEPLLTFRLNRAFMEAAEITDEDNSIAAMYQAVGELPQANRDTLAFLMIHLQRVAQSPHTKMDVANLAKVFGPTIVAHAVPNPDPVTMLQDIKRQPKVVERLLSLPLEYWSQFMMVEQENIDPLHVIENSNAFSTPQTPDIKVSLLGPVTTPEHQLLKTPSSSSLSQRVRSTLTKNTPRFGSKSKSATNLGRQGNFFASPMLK
structure (smiles),measurement,setting,value
O=C(O)c1cccc(CSc2nc(-c3ccccc3)cc(C(F)(F)F)n2)c1,EC50,[1],> 150 µM (inactive)
same,EC50,[2],5.9 µM (active)
Cn1c(=O)c2c(ncn2Cc2ccc(Cl)cc2)n(C)c1=O,IC50,[3],> 20 µM (inactive)
Cc1ccc(C(=O)O/N=C/c2c(Cl)n(C)c3ccccc23)cc1,AC50,Cytochrome P450 1A2,1.12 µM (inconclusive)
same,AC50,Cytochrome P450 2C9,inconclusive
O=C(CSc1nc(-c2ccco2)cc(C(F)(F)F)n1)Nc1ccc(C(=O)N2CCCCC2)cc1,EC50,[4],62.7 µM (active)
same,EC50,[5],28.8 µM (active)
same,AC50,[6],2.87 µM (active)
same,AC50,[7],51 µM (active)
same,AC50,[8],0.774 µM (active)
OC1(c2cn(Cc3ccccc3)nn2)CCCCC1,IC50,Leucine aminopeptidase,61.5 µM (active)
CCOc1ccc(Nc2nc(Cc3nnc(SCC(=O)O)o3)cs2)cc1,IC50,Leucine aminopeptidase,7.08 µM (active)
CC(=O)Nc1ccc(Nc2nc(C)c([N+](=O)[O-])c(Nc3ccc(NC(C)=O)cc3)n2)cc1,EC50,cells [9],> 350 µM (not active)
same,EC50,cells [10],> 350 µM (not active)
CC(=O)c1cc(C#N)c(N2CCCC2)nc1C,EC50,[1],> 160 µM (inactive)
same,EC50,[2],> 38 µM (not active)
Cc1ccc(C(=O)Nc2ccc3c(c2)nc(CCNC(=O)c2ccco2)n3C)cc1,EC50,cells [9],> 350 µM (not active)
same,EC50,cells [10],> 350 µM (not active)
CCSc1nnc(-c2ccccc2/N=C/c2c(C)nn(-c3ccccc3)c2O)c(O)n1,IC50,Leucine aminopeptidase,39.6 µM (active)
CCCCN(C(=O)c1c(C)[nH]c(C(=O)OCC)c1C)c1ccccc1,EC50,cells [9],> 350 µM (not active)
same,EC50,cells [10],> 350 µM (not active)
COc1ccccc1[C@@H]1C(c2cccc(C)c2)=NN(c2ccccc2)[C@H]1C(=O)N1CCOC1=O,IC50,[3],> 20 µM (inactive)
O=C1c2cccc3cccc(c23)C(=O)N1CCc1ccccc1,IC50,[3],> 20 µM (inactive)
COc1ccc(C(=O)N(CN2CCCC2=O)c2ccc(C)cc2)cc1,EC50,[1],66 µM (active)
same,EC50,[2],> 38 µM (not active)
OCc1cc(O)c(OCc2ccccc2)cn1,EC50,cells [9],> 350 µM (not active)
same,EC50,cells [10],> 350 µM (not active)
CCN(CC)CCCCn1c(-c2ccccc2)nc2c(N3CCOCC3)nc(C)nc21,AC50,Cytochrome P450 3A4,7.94 µM (inconclusive)
CCc1ccc(C(=O)CSc2n[nH]c(C)n2)cc1,IC50,Leucine aminopeptidase,63.4 µM (active)
CC(C)Cn1c(N)c(C(=O)COC(=O)c2cnc(Cl)c(Cl)c2)c(=O)n(C)c1=O,IC50,[11],15.3 µM (not active)
same,CC50,[12],25.7 µM (active)
same,IC50,cells [13],13.2 µM (active)
CCC(=O)c1ccc(OCc2ccc(C(=O)c3ccccc3)cc2)cc1,AC50,[6],3.29 µM (active)
same,AC50,[7],26.3 µM (active)
same,AC50,[8],5.86 µM (active)
Cn1c(=O)cc(N)n(Cc2ccccc2)c1=O,AC50,Cytochrome P450 3A4,39.8 µM (inconclusive)
COC(=O)CCCCCN1C(=O)NC(c2ccccc2)C(C(=O)OCc2ccccc2)=C1C (configuration not stated),AC50,Cytochrome P450 3A4,10 µM (inconclusive)
CCN1C(=O)c2cccc3c(NC(=O)c4ccc(S(=O)(=O)N(C)C)cc4)ccc1c23,IC50,[3],> 20 µM (inactive)
O=C(Nc1cccc(F)c1)c1cc(S(=O)(=O)NCCC2=CCCCC2)ccc1F,IC50,[3],> 20 µM (inactive)
same,AC50,[6],4.16 µM (active)
same,AC50,[7],39.8 µM (active)
same,AC50,[8],13.9 µM (active)
Cc1c(O)c([S+]([O-])c2ccccc2)c(=O)n(-c2ccccc2)c1-c1ccccc1 (configuration not stated),IC50,Leucine aminopeptidase,15.1 µM (active)
Cc1sc(NC(=O)C2CC=CCC2C(=O)O)c(C(=O)OC(C)C)c1C (configuration not stated),IC50,Leucine aminopeptidase,24.1 µM (active)
C[C@H](NC(=O)/C(C#N)=C/c1ccc(O)c(O)c1)c1ccccc1,AC50,Cytochrome P450 2C19,31.6 µM (inconclusive)
same,AC50,Cytochrome P450 2C9,inconclusive
COc1cccc(N)c1,AC50,Cytochrome P450 3A4,31.6 µM (inconclusive)
CCC1=C2CC[C@H]3C(=O)N(CC(=O)OC)C(=O)[C@H]3[C@H]2[C@@]2(C)/C(=N/CC(=O)OC)OC(=O)N2C1=O,AC50,Cytochrome P450 3A4,25.1 µM (inconclusive)
O=C(c1ccc(Cl)cc1Cl)N1CCC(c2nc(O)c3nnn(Cc4ccco4)c3n2)CC1,IC50,[11],> 50 µM (not active)
COc1ccc(CN2C(=O)c3cccc4cccc2c34)cc1F,IC50,[3],> 20 µM (inactive)
Cn1cc(CC(=O)N2CCN(c3ccc(Cl)cc3)CC2)c2ccccc21,EC50,cells [9],> 350 µM (not active)
same,EC50,cells [10],> 350 µM (not active)
CCCN1C(=O)S/C(=C\c2ccc(N3CCOCC3)o2)C1=O,IC50,cells [13],21.9 µM (active)
same,AC50,[6],6.37 µM (active)
same,AC50,[7],> 70 µM (inactive)
same,AC50,[8],25.8 µM (active)
N#CCCn1c(=O)c(-c2ccc(Cl)cc2)nc2cnc(N3CCOCC3)nc21,AC50,Cytochrome P450 2C9,inconclusive
C/C(=N\NC(=O)CSCc1ccccc1Cl)c1cc(O)ccc1O,EC50,[1],> 160 µM (inactive)
same,EC50,[2],> 38 µM (not active)
same,IC50,[14],24.3 µM (active)
CC(C)=NOC(=O)c1c(C)noc1-c1snnc1C,EC50,cells [9],> 350 µM (not active)
same,EC50,cells [10],> 350 µM (not active)
O=C(NCC(=O)N(Cc1ccco1)C(C(=O)NC1CCCCC1)c1cccnc1)c1cccs1 (configuration not stated),EC50,cells [9],> 350 µM (not active)
same,EC50,cells [10],> 350 µM (not active)
Cc1nn(C)cc1S(=O)(=O)NCc1ccc2c(c1)OCO2,EC50,cells [9],> 350 µM (not active)
same,EC50,cells [10],> 350 µM (not active)
CCCCN1CCC(n2c(=O)[nH]c3ccccc32)CC1,AC50,Cytochrome P450 2C9,inconclusive
